Reference: patent publication US20260248926A1, “BIFUNCTIONAL COMPOUND AND PHARMACEUTICAL COMPOSITION COMPRISING THE BIFUNCTIONAL COMPOUND, AND METHOD FOR TREATING ANDROGEN RECEPTOR RELATED DISEASE BY USING THE SAME” (ANHORN MEDICINES CO., LTD., priority 2022, published 2026)

These compounds were tested against T1, androgen receptor (Homo sapiens, UniProt P10275, T878A) (assay: Androgen receptor degradation assay using Western blot analysis in LNCaP.FGC cells). Conditions: concentration needed for 50% AR degradation, 24 hr treatment, read-out: AR DC50.
T1 construct: Several compounds were selected and serial diluted (10×) with RPMI medium for treating LNCaP.FGC cells; host or cells: LNCaP.FGC
T1 sequence (P10275 whole entry T878A): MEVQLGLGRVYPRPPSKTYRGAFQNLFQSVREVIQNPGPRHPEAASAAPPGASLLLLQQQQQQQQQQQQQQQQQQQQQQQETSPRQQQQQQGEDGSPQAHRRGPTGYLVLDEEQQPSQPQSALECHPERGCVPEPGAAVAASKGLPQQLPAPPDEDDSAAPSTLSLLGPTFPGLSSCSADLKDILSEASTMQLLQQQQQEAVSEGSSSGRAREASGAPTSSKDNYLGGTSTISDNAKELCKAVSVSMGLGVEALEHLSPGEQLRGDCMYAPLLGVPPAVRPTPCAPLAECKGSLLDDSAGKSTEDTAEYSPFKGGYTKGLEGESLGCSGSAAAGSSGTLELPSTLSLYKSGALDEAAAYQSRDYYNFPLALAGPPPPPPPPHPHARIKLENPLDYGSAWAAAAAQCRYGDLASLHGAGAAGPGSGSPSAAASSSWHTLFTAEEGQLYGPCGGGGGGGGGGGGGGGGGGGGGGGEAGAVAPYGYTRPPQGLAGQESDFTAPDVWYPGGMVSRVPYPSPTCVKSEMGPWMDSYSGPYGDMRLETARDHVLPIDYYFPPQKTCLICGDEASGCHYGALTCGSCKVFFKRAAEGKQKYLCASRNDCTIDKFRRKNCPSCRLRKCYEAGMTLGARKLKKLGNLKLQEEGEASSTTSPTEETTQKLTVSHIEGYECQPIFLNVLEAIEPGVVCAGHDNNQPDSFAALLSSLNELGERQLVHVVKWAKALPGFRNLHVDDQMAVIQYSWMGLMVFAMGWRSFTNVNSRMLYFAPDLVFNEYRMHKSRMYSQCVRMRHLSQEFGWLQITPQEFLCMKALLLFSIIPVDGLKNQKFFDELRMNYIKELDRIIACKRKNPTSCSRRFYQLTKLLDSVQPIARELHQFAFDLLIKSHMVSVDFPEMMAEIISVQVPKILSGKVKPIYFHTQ
T1 sequence (Q96SW2 whole entry partner): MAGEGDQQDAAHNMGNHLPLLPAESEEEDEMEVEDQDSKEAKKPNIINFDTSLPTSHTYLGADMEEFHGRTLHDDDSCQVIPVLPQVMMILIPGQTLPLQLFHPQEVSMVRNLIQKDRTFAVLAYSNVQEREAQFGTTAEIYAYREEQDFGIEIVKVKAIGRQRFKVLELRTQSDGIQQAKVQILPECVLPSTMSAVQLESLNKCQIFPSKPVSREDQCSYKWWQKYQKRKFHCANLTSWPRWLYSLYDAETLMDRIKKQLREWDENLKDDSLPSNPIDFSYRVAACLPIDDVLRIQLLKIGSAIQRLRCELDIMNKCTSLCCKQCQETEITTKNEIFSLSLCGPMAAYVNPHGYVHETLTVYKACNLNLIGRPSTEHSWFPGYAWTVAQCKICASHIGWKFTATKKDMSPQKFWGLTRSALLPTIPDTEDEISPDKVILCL
Type: cell-based
Procedure: The internal loading control GAPDH was detected using a mouse monoclonal antibody (1:5000) (GTX627408, GeneTex International Corp., HsinChu City, Taiwan R.O.C.) and a goat anti-mouse HRP-conjugated secondary antibody (1:5000 dilution) (C04001, Croyez Bioscience Co., Ltd., Taipei City, Taiwan R.O.C.).
Several compounds were selected and serial diluted (10×) with RPMI medium for treating LNCaP.FGC cells. A calibration curve was determined by the serial diluted samples for each compound, and the concentration needed for 50% AR degradation (AR DC50) for each compound was calculated.

SMILES | DC50 [nM]
Cn1c2c(c3ccc(N4CCN(CC5CN(c6ccc(C(=O)N[C@H]7CC[C@H](Oc8ccc(C#N)c(Cl)c8)CC7)nn6)C5)CC4)cc31)C(=O)N(C1CCC(=O)NC1=O)C2=O (stereo partly shown) [Compound 1] | < 10
Cn1c2c(c3ccc(C4CCN(CC5CN(c6ccc(C(=O)N[C@H]7CC[C@H](Oc8ccc(C#N)c(Cl)c8)CC7)nn6)C5)CC4)cc31)C(=O)N(C1CCC(=O)NC1=O)C2=O (stereo partly shown) [Compound 2] | < 10
Cn1c2c(c3ccc(N4CCN(CC5CCN(c6ccc(C(=O)N[C@H]7CC[C@H](Oc8ccc(C#N)c(Cl)c8)CC7)nn6)CC5)CC4)cc31)C(=O)N(C1CCC(=O)NC1=O)C2=O (stereo partly shown) [Compound 21] | < 10
Cn1c2c(c3ccc(N4CCN(CC5CCN(c6ccc(C(=O)N[C@H]7CC[C@@H](Oc8ccc(C#N)c(Cl)c8)CC7)nn6)CC5)CC4)cc31)C(=O)N(C1CCC(=O)NC1=O)C2=O (stereo partly shown) [Compound 22] | 10 to 25
Cn1c2c(c3ccc(N4CCN(CC5CCN(c6ccc(C(=O)N[C@H]7C(C)(C)[C@H](Oc8ccc(C#N)c(Cl)c8)C7(C)C)cn6)CC5)CC4)cc31)C(=O)N(C1CCC(=O)NC1=O)C2=O (stereo partly shown) [Compound 27] | 10 to 25
Cn1c2c(c3ccc(N4CCN(CC5CCN(c6ccc(C(=O)N[C@H]7C(C)(C)[C@@H](Oc8ccc(C#N)c(Cl)c8)C7(C)C)cn6)CC5)CC4)cc31)C(=O)N(C1CCC(=O)NC1=O)C2=O (stereo partly shown) [Compound 28] | 25 to 100
Cn1c2c(c3ccc(C4CCN(CC5CCN(c6ccc(C(=O)N[C@H]7CC[C@H](Oc8ccc(C#N)c(Cl)c8)CC7)nn6)CC5)CC4)cc31)C(=O)N(C1CCC(=O)NC1=O)C2=O (stereo partly shown) [Compound 29] | 10 to 25
Cn1c2c(c3ccc(C4CCN(CC5CCN(c6ccc(C(=O)N[C@H]7CC[C@@H](Oc8ccc(C#N)c(Cl)c8)CC7)nn6)CC5)CC4)cc31)C(=O)N(C1CCC(=O)NC1=O)C2=O (stereo partly shown) [Compound 30] | < 10
Cn1c2c(c3ccc(C4CCN(CC5CCN(c6ccc(C(=O)N[C@H]7CC[C@H](Oc8ccc(C#N)c(Cl)c8)CC7)nn6)C5)CC4)cc31)C(=O)N(C1CCC(=O)NC1=O)C2=O (stereo partly shown) [Compound 34] | 10 to 25
Cn1c2c(c3ccc(N4CCN(CC5CCN(c6ncc(C(=O)N[C@H]7CC[C@H](Oc8ccc(C#N)c(Cl)c8)CC7)cn6)CC5)CC4)cc31)C(=O)N(C1CCC(=O)NC1=O)C2=O (stereo partly shown) [Compound 35] | 10 to 25
Cn1c2c(c3cc(N4CCN(CC5CCN(c6ccc(C(=O)N[C@H]7CC[C@H](Oc8ccc(C#N)c(Cl)c8)CC7)nn6)CC5)CC4)ccc31)C(=O)N(C1CCC(=O)NC1=O)C2=O (stereo partly shown) [Compound 41] | > 100
Cn1c2c(c3cc(N4CCN(CC5CCN(c6ccc(C(=O)N[C@H]7CC[C@@H](Oc8ccc(C#N)c(Cl)c8)CC7)nn6)CC5)CC4)ccc31)C(=O)N(C1CCC(=O)NC1=O)C2=O (stereo partly shown) [Compound 42] | 25 to 100
Cn1c2c(c3cc(N4CCN(CC5CN(c6ccc(C(=O)N[C@H]7CC[C@H](Oc8ccc(C#N)c(Cl)c8)CC7)nn6)C5)CC4)ccc31)C(=O)N(C1CCC(=O)NC1=O)C2=O (stereo partly shown) [Compound 47] | 25 to 100

Same assay, conditions: read-out: AR DC50, concentration needed for 50% AR degradation, 24 hr treatment

SMILES | DC50 [nM]
CCn1c2c(c3ccc(N4CCN(CC5CN(c6ccc(C(=O)N[C@H]7CC[C@H](Oc8ccc(C#N)c(Cl)c8)CC7)nn6)C5)CC4)cc31)C(=O)N(C1CCC(=O)NC1=O)C2=O (stereo partly shown) [Compound 3] | < 10
CCn1c2c(c3ccc(N4CCN(CC5CCN(c6ccc(C(=O)N[C@H]7CC[C@H](Oc8ccc(C#N)c(Cl)c8)CC7)cn6)CC5)CC4)cc31)C(=O)N(C1CCC(=O)NC1=O)C2=O (stereo partly shown) [Compound 4] | 25 to 100
CCn1c2c(c3ccc(N4CCN(CC5CCN(c6ccc(C(=O)N[C@H]7CC[C@@H](Oc8ccc(C#N)c(Cl)c8)CC7)cn6)CC5)CC4)cc31)C(=O)N(C1CCC(=O)NC1=O)C2=O (stereo partly shown) [Compound 5] | 25 to 100
CCn1c2c(c3ccc(N4CCN(CC5CCN(c6ccc(C(=O)N[C@H]7C(C)(C)[C@H](Oc8ccc(C#N)c(Cl)c8)C7(C)C)cn6)CC5)CC4)cc31)C(=O)N(C1CCC(=O)NC1=O)C2=O (stereo partly shown) [Compound 6] | 25 to 100
CCn1c2c(c3ccc(N4CCN(CC5CCN(c6ccc(C(=O)N[C@H]7C(C)(C)[C@@H](Oc8ccc(C#N)c(Cl)c8)C7(C)C)cn6)CC5)CC4)cc31)C(=O)N(C1CCC(=O)NC1=O)C2=O (stereo partly shown) [Compound 7] | 25 to 100
CCn1c2c(c3ccc(N4CCN(CC5CCN(c6ccc(C(=O)N[C@H]7C(C)(C)[C@H](Oc8ccc(C#N)c(Cl)c8)C7(C)C)nn6)CC5)CC4)cc31)C(=O)N(C1CCC(=O)NC1=O)C2=O (stereo partly shown) [Compound 8] | 25 to 100
CCn1c2c(c3ccc(N4CCN(CC5CCN(c6ccc(C(=O)N[C@H]7C(C)(C)[C@@H](Oc8ccc(C#N)c(Cl)c8)C7(C)C)nn6)CC5)CC4)cc31)C(=O)N(C1CCC(=O)NC1=O)C2=O (stereo partly shown) [Compound 9] | 25 to 100
CCn1c2c(c3ccc(C4CCN(CC5CN(c6ccc(C(=O)N[C@H]7CC[C@H](Oc8ccc(C#N)c(Cl)c8)CC7)nn6)C5)CC4)cc31)C(=O)N(C1CCC(=O)NC1=O)C2=O (stereo partly shown) [Compound 10] | < 10
CCn1c2c(c3ccc(C4CCN(CC5CCN(c6ccc(C(=O)N[C@H]7CC[C@H](Oc8ccc(C#N)c(Cl)c8)CC7)nn6)CC5)CC4)cc31)C(=O)N(C1CCC(=O)NC1=O)C2=O (stereo partly shown) [Compound 11] | < 10
CCn1c2c(c3ccc(C4CCN(CC5CCN(c6ccc(C(=O)N[C@H]7CC[C@@H](Oc8ccc(C#N)c(Cl)c8)CC7)nn6)CC5)CC4)cc31)C(=O)N(C1CCC(=O)NC1=O)C2=O (stereo partly shown) [Compound 12] | 10 to 25
CCn1c2c(c3ccc(N4CCN(CC5CCN(c6ccc(C(=O)N[C@H]7C(C)(C)[C@H](Oc8ccc(C#N)c(Cl)c8)C7(C)C)cc6)CC5)CC4)cc31)C(=O)N(C1CCC(=O)NC1=O)C2=O (stereo partly shown) [Compound 15] | 25 to 100
CCn1c2c(c3ccc(N4CCN(CC5CCN(c6ccc(C(=O)N[C@H]7C(C)(C)[C@@H](Oc8ccc(C#N)c(Cl)c8)C7(C)C)cc6)CC5)CC4)cc31)C(=O)N(C1CCC(=O)NC1=O)C2=O (stereo partly shown) [Compound 16] | > 100
CCn1c2c(c3ccc(N4CCN(CC5CCN(c6ccc(C(=O)N[C@H]7CC[C@H](Oc8ccc(C#N)c(Cl)c8)CC7)nn6)C5)CC4)cc31)C(=O)N(C1CCC(=O)NC1=O)C2=O (stereo partly shown) [Compound 17] | 10 to 25
CCn1c2c(c3ccc(C4CCN(CC5CCN(c6ccc(C(=O)N[C@H]7CC[C@H](Oc8ccc(C#N)c(Cl)c8)CC7)nn6)C5)CC4)cc31)C(=O)N(C1CCC(=O)NC1=O)C2=O (stereo partly shown) [Compound 18] | 10 to 25
CCn1c2c(c3ccc(N4CCN(CC5CCN(c6ccc(C(=O)N[C@H]7CC[C@H](Oc8ccc(C#N)c(Cl)c8)CC7)nn6)CC5)CC4)cc31)C(=O)N(C1CCC(=O)NC1=O)C2=O (stereo partly shown) [Compound 23] | 10 to 25
CCn1c2c(c3ccc(C4CCN(CC5CCN(c6ccc(C(=O)N[C@H]7C(C)(C)[C@H](Oc8ccc(C#N)c(Cl)c8)C7(C)C)cc6)CC5)CC4)cc31)C(=O)N(C1CCC(=O)NC1=O)C2=O (stereo partly shown) [Compound 24] | 25 to 100
CCn1c2c(c3ccc(N4CCN(CC5CCN(c6ncc(C(=O)N[C@H]7CC[C@H](Oc8ccc(C#N)c(Cl)c8)CC7)cn6)CC5)CC4)cc31)C(=O)N(C1CCC(=O)NC1=O)C2=O (stereo partly shown) [Compound 25] | 10 to 25
CCn1c2c(c3ccc(N4CCN(CC5CCN(c6ncc(C(=O)N[C@H]7CC[C@@H](Oc8ccc(C#N)c(Cl)c8)CC7)cn6)CC5)CC4)cc31)C(=O)N(C1CCC(=O)NC1=O)C2=O (stereo partly shown) [Compound 26] | > 100
CCn1c2c(c3ccc(N4CCN(CC5CCN(c6ccc(C(=O)N[C@H]7CC[C@@H](Oc8ccc(C#N)c(Cl)c8)CC7)nn6)CC5)CC4)cc31)C(=O)N(C1CCC(=O)NC1=O)C2=O (stereo partly shown) [Compound 33] | < 10
CCn1c2c(c3ccc(N4CCN(CC5CCN(c6ccc(C(=O)N[C@H]7CC[C@H](Oc8ccc(C#N)c(Cl)c8)CC7)nn6)CC5)CC4)cc31)C(=O)N([C@H]1CCC(=O)NC1=O)C2=O [Compound 36] | 10 to 25
CCn1c2c(c3ccc(N4CCN(CC5CCN(c6ccc(C(=O)N[C@H]7CC[C@@H](Oc8ccc(C#N)c(Cl)c8)CC7)nn6)CC5)CC4)cc31)C(=O)N([C@H]1CCC(=O)NC1=O)C2=O [Compound 39] | 10 to 25
CCn1c2c(c3ccc(N4CCC(CN5CCC(c6ccc(C(=O)N[C@H]7CC[C@H](Oc8ccc(C#N)c(Cl)c8)CC7)nn6)CC5)CC4)cc31)C(=O)N(C1CCC(=O)NC1=O)C2=O (stereo partly shown) [Compound 40] | 10 to 25
CCn1c2c(c3ccc(C4=CCN(CC5CCN(c6ccc(C(=O)N[C@H]7CC[C@H](Oc8ccc(C#N)c(Cl)c8)CC7)nn6)CC5)CC4)cc31)C(=O)N(C1CCC(=O)NC1=O)C2=O (stereo partly shown) [Compound 48] | 10 to 25
CCn1c2c(c3ccc(N4CCC5(CC4)CN(CC4CCN(c6ccc(C(=O)N[C@H]7CC[C@H](Oc8ccc(C#N)c(Cl)c8)CC7)nn6)CC4)C5)cc31)C(=O)N(C1CCC(=O)NC1=O)C2=O (stereo partly shown) [Compound 51] | < 10
